{"source": "patent US8927717B1", "about": "“Thiochromeno[2,3-c]quinolin-12-one derivatives, preparation method and application thereof” (National Defense Medical Center, priority 2014, dated 2015)", "assay_type_in_all_cases": "cell-based", "key": {"OVCAR-5": {"test_system": "OVCAR-5", "conditions": "OVCAR-5; 10^−5 molar"}, "UO-31": {"test_system": "UO-31", "conditions": "UO-31; 10^−5 molar"}, "SNB-75": {"test_system": "SNB-75", "conditions": "SNB-75; 10^−5 molar"}, "OVCAR-8": {"test_system": "OVCAR-8", "conditions": "OVCAR-8; 10^−5 molar"}, "786-0": {"test_system": "786-0", "conditions": "786-0; 10^−5 molar"}, "TK-10": {"test_system": "TK-10", "conditions": "TK-10; 10^−5 molar"}, "UACC-62": {"test_system": "UACC-62", "conditions": "UACC-62; 10^−5 molar"}, "K-562": {"test_system": "K-562", "conditions": "K-562; 10^−5 molar"}, "A549/ATCC": {"test_system": "A549/ATCC", "conditions": "A549/ATCC; 10^−5 molar"}, "SF-295": {"test_system": "SF-295", "conditions": "SF-295; 10^−5 molar"}, "ACHN": {"test_system": "ACHN", "conditions": "ACHN; 10^−5 molar"}, "MCF7": {"test_system": "MCF7", "conditions": "MCF7; 10^−5 molar"}, "60 cancer cell lines": {"test_system": "60 cancer cell lines", "test": "NCI 60-cell screen, SRB, whole panel (mean, delta, range)", "conditions": "10^−5 molar"}, "SN12C": {"test_system": "SN12C", "conditions": "SN12C; 10^−5 molar"}, "HOP-62": {"test_system": "HOP-62", "conditions": "HOP-62; 10^−5 molar"}, "LOX IMVI": {"test_system": "LOX IMVI", "conditions": "LOX IMVI; 10^−5 molar"}, "A498": {"test_system": "A498", "conditions": "A498; 10^−5 molar"}, "T-47D": {"test_system": "T-47D", "conditions": "T-47D; 10^−5 molar"}, "NCI-H522": {"test_system": "NCI-H522", "conditions": "NCI-H522; 10^−5 molar"}, "HCT-15": {"test_system": "HCT-15", "conditions": "HCT-15; 10^−5 molar"}, "HT29": {"test_system": "HT29", "conditions": "HT29; 10^−5 molar"}, "NCI-H226": {"test_system": "NCI-H226", "conditions": "NCI-H226; 10^−5 molar"}, "SK-MEL-28": {"test_system": "SK-MEL-28", "conditions": "SK-MEL-28; 10^−5 molar"}, "HS 578T": {"test_system": "HS 578T", "conditions": "HS 578T; 10^−5 molar"}, "DU-145": {"test_system": "DU-145", "conditions": "DU-145; 10^−5 molar"}, "NCI-H23": {"test_system": "NCI-H23", "conditions": "NCI-H23; 10^−5 molar"}, "KM12": {"test_system": "KM12", "test": "cells", "conditions": "KM12; 10^−5 molar"}, "MDA-MB-435": {"test_system": "MDA-MB-435", "conditions": "MDA-MB-435; 10^−5 molar"}, "SF-268": {"test_system": "SF-268", "conditions": "SF-268; 10^−5 molar"}, "RXF 393": {"test_system": "RXF 393", "conditions": "RXF 393; 10^−5 molar"}, "SW-620": {"test_system": "SW-620", "conditions": "SW-620; 10^−5 molar"}, "MOLT-4": {"test_system": "MOLT-4", "conditions": "MOLT-4; 10^−5 molar"}, "MDA-MB-231/ATCC": {"test_system": "MDA-MB-231/ATCC", "conditions": "MDA-MB-231/ATCC; 10^−5 molar"}, "SR": {"test_system": "SR", "conditions": "SR; 10^−5 molar"}, "U251": {"test_system": "U251", "conditions": "U251; 10^−5 molar"}, "SNB-19": {"test_system": "SNB-19", "conditions": "SNB-19; 10^−5 molar"}, "MALME-3M": {"test_system": "MALME-3M", "conditions": "MALME-3M; 10^−5 molar"}, "NCI/ADR-RES": {"test_system": "NCI/ADR-RES", "conditions": "NCI/ADR-RES; 10^−5 molar"}, "MDA-MB-486": {"test_system": "MDA-MB-486", "conditions": "MDA-MB-486; 10^−5 molar"}}, "data": [{"smiles": "O=c1c2cc(Cl)ccc2sc2c(NCCN3CCOCC3)nc3ccccc3c12", "note": "[Compound N16, 10-Chloro-6-((2-morpholinoethyl)amino)-12H-thiochromeno[2,3-c]quinolin-12-one]", "values": [{"measurement": "Growth percent", "setting": "OVCAR-5", "result": 68.98, "unit": "%"}, {"measurement": "Growth percent", "setting": "UO-31", "result": 54.16, "unit": "%"}, {"measurement": "Growth percent", "setting": "SNB-75", "result": 60.74, "unit": "%"}, {"measurement": "Growth percent", "setting": "OVCAR-8", "result": 92.43, "unit": "%"}, {"measurement": "Growth percent", "setting": "786-0", "result": 83.16, "unit": "%"}, {"measurement": "Growth percent", "setting": "TK-10", "result": 76.67, "unit": "%"}, {"measurement": "Growth percent", "setting": "UACC-62", "result": 94.58, "unit": "%"}, {"measurement": "Growth percent", "setting": "K-562", "result": 17.67, "unit": "%"}, {"measurement": "Growth percent", "setting": "A549/ATCC", "result": 95.12, "unit": "%"}, {"measurement": "Growth percent", "setting": "SF-295", "result": 102.17, "unit": "%"}, {"measurement": "Growth percent", "setting": "ACHN", "result": 91.61, "unit": "%"}, {"measurement": "Growth percent", "setting": "MCF7", "result": 51.69, "unit": "%"}, {"measurement": "Growth percent, Delta", "setting": "60 cancer cell lines; delta over panel", "result": 62.71, "unit": "%"}, {"measurement": "Growth percent, Mean", "setting": "60 cancer cell lines; mean over panel", "result": 80.38, "unit": "%"}, {"measurement": "Growth percent, Range", "setting": "60 cancer cell lines; range over panel", "result": 88.85, "unit": "%"}, {"measurement": "Growth percent", "setting": "SN12C", "result": 95.98, "unit": "%"}, {"measurement": "Growth percent", "setting": "HOP-62", "result": 67.97, "unit": "%"}, {"measurement": "Growth percent", "setting": "LOX IMVI", "result": 67.43, "unit": "%"}, {"measurement": "Growth percent", "setting": "A498", "result": 80.54, "unit": "%"}, {"measurement": "Growth percent", "setting": "T-47D", "result": 47.63, "unit": "%"}, {"measurement": "Growth percent", "setting": "NCI-H522", "result": 76.66, "unit": "%"}, {"measurement": "Growth percent", "setting": "HCT-15", "result": 58.81, "unit": "%"}, {"measurement": "Growth percent", "setting": "HT29", "result": 43.13, "unit": "%"}, {"measurement": "Growth percent", "setting": "NCI-H226", "result": 94.09, "unit": "%"}, {"measurement": "Growth percent", "setting": "SK-MEL-28", "result": 98.56, "unit": "%"}, {"measurement": "Growth percent", "setting": "HS 578T", "result": 89.65, "unit": "%"}, {"measurement": "Growth percent", "setting": "DU-145", "result": 93.09, "unit": "%"}, {"measurement": "Growth percent", "setting": "NCI-H23", "result": 83.07, "unit": "%"}, {"measurement": "Growth percent", "setting": "KM12", "result": 68.16, "unit": "%"}, {"measurement": "Growth percent", "setting": "MDA-MB-435", "result": 98.93, "unit": "%"}, {"measurement": "Growth percent", "setting": "SF-268", "result": 79.49, "unit": "%"}, {"measurement": "Growth percent", "setting": "RXF 393", "result": 93.21, "unit": "%"}, {"measurement": "Growth percent", "setting": "SW-620", "result": 99.65, "unit": "%"}, {"measurement": "Growth percent", "setting": "MOLT-4", "result": 80.91, "unit": "%"}, {"measurement": "Growth percent", "setting": "MDA-MB-231/ATCC", "result": 59.20, "unit": "%"}, {"measurement": "Growth percent", "setting": "SR", "result": 67.74, "unit": "%"}, {"measurement": "Growth percent", "setting": "U251", "result": 76.34, "unit": "%"}, {"measurement": "Growth percent", "setting": "SNB-19", "result": 90.44, "unit": "%"}, {"measurement": "Growth percent", "setting": "MALME-3M", "result": 78.79, "unit": "%"}, {"measurement": "Growth percent", "setting": "NCI/ADR-RES", "result": 77.03, "unit": "%"}, {"measurement": "Growth percent", "setting": "MDA-MB-486", "result": 74.34, "unit": "%"}]}]}
